This note sets out measurements from BindingDB's records for doi:10.1074/jbc.273.36.23321 (Synaptic Pharmaceutical, 1998).

Residues, ends and D or L forms follow the SMILES beside them.

The target of assay [1] is T1, Galanin receptor type 3 (Homo sapiens, UniProt O60755).
T1 sequence (O60755 whole entry): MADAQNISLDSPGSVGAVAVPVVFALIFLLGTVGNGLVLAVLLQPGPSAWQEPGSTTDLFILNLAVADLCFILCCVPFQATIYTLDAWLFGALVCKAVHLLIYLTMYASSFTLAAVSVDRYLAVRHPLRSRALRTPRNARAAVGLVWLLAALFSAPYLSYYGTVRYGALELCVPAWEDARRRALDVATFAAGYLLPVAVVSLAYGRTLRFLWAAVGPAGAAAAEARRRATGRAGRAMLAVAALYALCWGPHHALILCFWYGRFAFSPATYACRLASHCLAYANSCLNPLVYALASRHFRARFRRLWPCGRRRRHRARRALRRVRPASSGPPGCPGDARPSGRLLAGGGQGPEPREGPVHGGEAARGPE

For the next assay, the target named is T2, Galanin receptor type 2 (Rattus norvegicus, UniProt O08726).
T2 sequence (O08726 whole entry): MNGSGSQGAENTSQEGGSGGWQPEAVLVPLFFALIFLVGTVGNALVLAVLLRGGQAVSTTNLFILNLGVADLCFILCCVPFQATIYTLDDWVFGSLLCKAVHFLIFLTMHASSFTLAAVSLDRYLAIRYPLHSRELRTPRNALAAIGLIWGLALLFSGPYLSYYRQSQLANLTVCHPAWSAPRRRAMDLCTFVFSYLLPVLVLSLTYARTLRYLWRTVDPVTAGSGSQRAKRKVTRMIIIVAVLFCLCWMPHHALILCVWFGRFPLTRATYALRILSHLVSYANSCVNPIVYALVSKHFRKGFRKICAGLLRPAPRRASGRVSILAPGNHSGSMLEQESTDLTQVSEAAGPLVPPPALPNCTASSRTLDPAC

Assay [2] deals with T3, Galanin receptor type 3 (Rattus norvegicus, UniProt O88626).
T3 sequence (O88626 whole entry): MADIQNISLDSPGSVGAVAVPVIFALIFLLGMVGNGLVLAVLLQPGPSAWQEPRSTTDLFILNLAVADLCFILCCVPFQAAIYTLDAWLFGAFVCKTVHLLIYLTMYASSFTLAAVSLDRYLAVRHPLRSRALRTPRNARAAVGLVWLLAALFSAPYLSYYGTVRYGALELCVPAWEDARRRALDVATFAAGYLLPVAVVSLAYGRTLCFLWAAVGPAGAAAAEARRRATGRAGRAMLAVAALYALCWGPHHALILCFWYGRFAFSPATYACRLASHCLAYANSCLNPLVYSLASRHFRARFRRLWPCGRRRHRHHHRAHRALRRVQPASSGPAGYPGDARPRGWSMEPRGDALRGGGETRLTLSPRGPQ

What is called Ki is the equilibrium dissociation constant of an inhibitor or competing ligand from its target. Low values mean a stronger hold on the target, high ones a looser hold on the target.

`CC[C@H](C)[C@H](NC(=O)[C@H](C)NC(=O)[C@H](Cc1c[nH]cn1)NC(=O)[C@@H]1CCCN1C(=O)CNC(=O)[C@H](CC(C)C)NC(=O)[C@H](CC(C)C)NC(=O)[C@H](Cc1ccc(O)cc1)NC(=O)CNC(=O)[C@H](C)NC(=O)[C@H](CO)NC(=O)[C@H](CC(N)=O)NC(=O)[C@H](CC(C)C)NC(=O)[C@@H](N)[C@@H](C)O)C(=O)N[C@@H](CC(=O)O)C(=O)N[C@@H](CC(N)=O)C(=O)N[C@@H](Cc1c[nH]cn1)C(=O)N[C@@H](CCCNC(=N)N)C(=O)N[C@@H](CO)C(=O)N[C@@H](Cc1ccccc1)C(=O)N[C@@H](Cc1c[nH]cn1)C(=O)N[C@@H](CC(=O)O)C(=O)N[C@@H](CCCCN)C(=O)N[C@@H](Cc1ccc(O)cc1)C(=O)NCC(=O)N[C@@H](CC(C)C)C(=O)N[C@@H](C)C(N)=O` [Galanin (3-29), porcine]: on Galanin receptor type 3 [1], the inhibitory constant (Ki) came to 1000 nM.

As for H-GWTLNSAGYLLGPPPALALA-NH2 [M40], the inhibition constant Ki was 3.55 nM on Galanin receptor type 2, 79.4 nM at Galanin receptor type 3 [2] and 288 nM on Galanin receptor type 3 [1].

Consider `CC(C)C[C@H](NC(=O)[C@H](CC(C)C)NC(=O)[C@@H](Cc1c[nH]c2ccccc12)NC(=O)[C@H](Cc1ccccc1)NC(=O)[C@@H](Cc1c[nH]c2ccccc12)NC(=O)[C@H](CCC(N)=O)NC(=O)[C@H](CCC(N)=O)NC(=O)[C@@H]1CCCN1C(=O)[C@H](CCCCN)NC(=O)[C@@H]1CCCN1C(=O)[C@@H](CCCN=C(N)N)NC(=O)[C@@H]1CCCN1C(=O)CNC(=O)[C@H](CC(C)C)NC(=O)[C@H](CC(C)C)NC(=O)[C@H](Cc1ccc(O)cc1)NC(=O)CNC(=O)[C@H](C)NC(=O)[C@H](CO)NC(=O)[C@H](CC(N)=O)NC(=O)[C@H](CC(C)C)NC(=O)[C@@H](NC(=O)[C@H](Cc1c[nH]c2ccccc12)NC(=O)CN)[C@@H](C)O)C(N)=O` [Gal(1-13)-Std I] (HELM PEPTIDE1{G.W.T.L.N.S.A.G.Y.L.L.G.P.[dR].P.K.P.Q.Q.[dW].F.[dW].L.L.[am]}$$$$V2.0), for which the inhibition constant (Ki) on Galanin receptor type 2 amounted to 0.56 nM; on Galanin receptor type 3 [1] it was 8.13 nM.

For the molecule `COc1ccccc1N(CCOc1ccc(C)cc1)C(=O)CN1CCCCC1` [CAS_3043476], the Ki on Galanin receptor type 2 was 1 nM; at Galanin receptor type 3 [2] it was 10.5 nM; at Galanin receptor type 3 [1], 39.8 nM.

Turning to `CC(C)C[C@H](NC(=O)[C@H](CC(C)C)NC(=O)[C@H](Cc1ccc(O)cc1)NC(=O)CNC(=O)[C@H](C)NC(=O)[C@H](CO)NC(=O)[C@H](CC(N)=O)NC(=O)[C@H](CC(C)C)NC(=O)[C@@H](NC(=O)[C@H](Cc1c[nH]c2ccccc12)NC(=O)CN)[C@@H](C)O)C(=O)NCC(=O)N1CCC[C@H]1C(=O)N1CCC[C@H]1C(=O)N1CCC[C@H]1C(=O)NCC(=O)N[C@@H](Cc1ccccc1)C(=O)N[C@@H](CO)C(=O)N1CCC[C@H]1C(=O)N[C@@H](Cc1ccccc1)C(=O)N[C@@H](CCCN=C(N)N)C(N)=O`, the inhibition constant (Ki) at Galanin receptor type 3 [2] turned out to be 2.09 nM; on Galanin receptor type 3 [1], 14.4 nM.

On to `CC(C)C[C@H](NC(=O)[C@H](CC(C)C)NC(=O)[C@@H](Cc1c[nH]c2ccccc12)NC(=O)[C@H](Cc1ccccc1)NC(=O)[C@@H](Cc1c[nH]c2ccccc12)NC(=O)[C@H](CCC(N)=O)NC(=O)[C@H](CCC(N)=O)NC(=O)[C@@H]1CCCN1C(=O)[C@H](CCCCN)NC(=O)[C@@H]1CCCN1C(=O)[C@@H](CCCNC(=N)N)NC(=O)[C@@H]1CCCN1C(=O)CNC(=O)[C@H](CC(C)C)NC(=O)[C@H](CC(C)C)NC(=O)[C@H](Cc1ccc(O)cc1)NC(=O)CNC(=O)[C@H](C)NC(=O)[C@H](CO)NC(=O)[C@H](CC(N)=O)NC(=O)[C@H](CC(C)C)NC(=O)[C@@H](NC(=O)[C@H](Cc1c[nH]c2ccccc12)NC(=O)CN)[C@@H](C)O)C(N)=O` [Gal(1-13)-Std I] (HELM PEPTIDE1{G.W.T.L.N.S.A.G.Y.L.L.G.P.[dR].P.K.P.Q.Q.[dW].F.[dW].L.L.[am]}$$$$V2.0), for which, at Galanin receptor type 3 [2], the inhibition constant Ki stood at 4.47 nM.

As to `CC[C@H](C)[C@H](NC(=O)[C@H](Cc1ccc(O)cc1)NC(=O)[C@H](Cc1c[nH]cn1)NC(=O)[C@H](CCCNC(=N)N)NC(=O)[C@@H]1CCCN1C(=O)CNC(=O)[C@H](CC(C)C)NC(=O)[C@H](CC(C)C)NC(=O)[C@H](Cc1ccc(O)cc1)NC(=O)CNC(=O)[C@H](C)NC(=O)[C@H](CO)NC(=O)[C@H](CC(N)=O)NC(=O)[C@H](CC(C)C)NC(=O)[C@@H](NC(=O)[C@H](Cc1c[nH]c2ccccc12)NC(=O)CN)[C@@H](C)O)C(=O)N[C@@H](CC(N)=O)C(=O)N[C@@H](CC(C)C)C(=O)N[C@H](C(=O)N[C@H](C(=O)N[C@@H](CCCNC(=N)N)C(=O)N[C@@H](CCC(N)=O)C(=O)N[C@@H](CCCNC(=N)N)C(=O)N[C@@H](Cc1ccc(O)cc1)C(N)=O)[C@@H](C)O)[C@@H](C)CC` [M32], the affinity at Galanin receptor type 3 [2], expressed as Ki, was 1.23 nM.

In the case of `CC[C@H](C)[C@H](NC(=O)[C@H](C)NC(=O)[C@H](Cc1cnc[nH]1)NC(=O)[C@@H]1CCCN1C(=O)CNC(=O)[C@H](CC(C)C)NC(=O)[C@H](CC(C)C)NC(=O)[C@H](Cc1ccc(O)cc1)NC(=O)CNC(=O)[C@H](C)NC(=O)[C@H](CO)NC(=O)[C@H](CC(N)=O)NC(=O)[C@H](CC(C)C)NC(=O)[C@@H](NC(=O)[C@H](Cc1c[nH]c2ccccc12)NC(=O)CN)[C@@H](C)O)C(=O)N[C@@H](CC(=O)O)C(=O)N[C@@H](CC(N)=O)C(=O)N[C@@H](Cc1cnc[nH]1)C(N)=O` [Galanin rat], the inhibition constant Ki at Galanin receptor type 2 is 1.35 nM; on Galanin receptor type 3 [2], 3.31 nM; on Galanin receptor type 3 [1] it was 12.3 nM.
